The compounds below were run on rapeseed (assay: Evaluation Example 5: Comparison of Elongated Plant Height of Rapeseed). Settings: petri dish, 5 mL, 25° C, 7th day after seeding, EGT 0.5 mM and/or component (A) 0.5 mM.
Assay type: in vivo
Experimental: The plant growth regulators of Examples 9 to 13 and Comparative Examples 13 to 18 were prepared so as to attain the concentrations indicated in Table 5 below. EGT, Gln, Trp, Met, Phe and acetic acid were commercially available products, and pure water was used as a solvent.
(§1) Into a 9 cm petri dish on which filter paper was spread, 5 mL of the plant growth regulator was added. Ten seeds of rapeseed were sown per one petri dish. In a growth chamber set at room temperature of 25° C., the light period was 16 hours and the dark period was 8 hours. The light conditions were set such that the light intensity was 5000 lx in the central part under irradiation with the fluorescent lamp.
(§2) The plant height of the rapeseed on the 7th day after seeding was evaluated.

| Structure (SMILES) | Elongated plant height, ratio to untreated control |
| --- | --- |
| C[N+](C)(C)[C@@H](Cc1c[nH]c(=S)[nH]1)C(=O)[O-] [Comparative Example 13, L-(+)-ergothioneine] | 1.1 |
| NC(=O)CC[C@H](N)C(=O)O [compound 14, L-glutamine] | 1.1 |
| N[C@@H](Cc1c[nH]c2ccccc12)C(=O)O [compound 15, L-tryptophan] | 0.5 |
| CSCC[C@H](N)C(=O)O [compound 16, L-methionine] | 1.0 |
| N[C@@H](Cc1ccccc1)C(=O)O [compound 17, L-phenylalanine] | 1.1 |
| CC(=O)O [compound 18, acetic acid] | 1.1 |

What follows are compounds tested on rapeseed (assay: Evaluation Example 6: Comparison of Elongated Plant Height of Rapeseed). Settings: petri dish, 5 mL, 25° C, 7th day after seeding, EGT 0.5 mM and/or component (A) 0.5 mM.
Assay type: in vivo
Experimental: The plant growth regulators of Examples 14 to 17 and Comparative Examples 19 to 23 were prepared so as to attain the concentrations indicated in Table 6 below. EGT, Leu, Val, Tyr and Ser were commercially available products, and pure water was used as a solvent.
as §1, §2

| Structure (SMILES) | Elongated plant height, ratio to untreated control |
| --- | --- |
| C[N+](C)(C)[C@@H](Cc1c[nH]c(=S)[nH]1)C(=O)[O-] [Comparative Example 19, L-(+)-ergothioneine] | 1.1 |
| CC(C)C[C@H](N)C(=O)O [compound 20, L-leucine] | 1.0 |
| CC(C)[C@H](N)C(=O)O [compound 21, L-valine] | 1.0 |
| N[C@@H](Cc1ccc(O)cc1)C(=O)O [compound 22, L-tyrosine] | 1.0 |
| N[C@@H](CO)C(=O)O [compound 23, L-serine] | 1.0 |

What follows are compounds tested on wheat (assay: Evaluation Example 17: Comparison of Elongated Plant Height of Wheat). Settings: petri dish, 5 mL, 24° C, 7th day after seeding, EGT 1 mM and/or uracil 0.01, 0.1 or 10 mM.
Assay type: in vivo
Experimental: The plant growth regulators of Examples 39 to 41 and Comparative Examples 55 to 58 were prepared so as to attain the concentrations indicated in Table 17 below. EGT and uracil were commercially available products, and pure water was used as a solvent.
(§3) Into a 9 cm petri dish on which filter paper was spread, 5 mL of the plant growth regulator was added. Ten seeds of wheat were sown per one petri dish. In a thermostatic chamber set at room temperature of 24° C., the light period was 16 hours and the dark period was 8 hours. The light conditions were set using a fluorescent lamp (PLANT FLEC, 40 W LED fluorescent lamp for plant growth, electric bulb color, available from Nippon Medical and Chemical Instruments Co., Ltd.) such that the light intensity was 5000 lx in the central part under irradiation with the fluorescent lamp.
(§4) The plant height of the wheat on the 7th day after seeding was evaluated.

| Structure (SMILES) | Elongated plant height, ratio to untreated control |
| --- | --- |
| C[N+](C)(C)[C@@H](Cc1c[nH]c(=S)[nH]1)C(=O)[O-] [Comparative Example 55, L-(+)-ergothioneine] | 1.1 |
| O=c1cc[nH]c(=O)[nH]1 [compound 56, uracil] | 1.1 |
| O=c1cc[nH]c(=O)[nH]1 [compound 57, uracil] | 1.0 |
| O=c1cc[nH]c(=O)[nH]1 [compound 58, uracil] | 1.0 |

These compounds were tested on radish (Akamaru Hatsuka) (assay: Evaluation Example 13: Comparison of Aboveground Part Weight and Underground Part Weight of Radish). Settings: 50 mL on 15th, 17th, 20th days, evaluated 27th day after seeding, EGT 0.5 mM and/or Glu 0.5 mM.
Assay type: in vivo
Experimental: The plant growth regulators of Example 34 and Comparative Examples 46 and 47 were prepared so as to attain the concentrations indicated in Table 13 below. EGT and Glu were commercially available products, and pure water was used as a solvent.
In a plastic pot having a diameter of 105 mm and a height of 90 mm, 450 g of granular soil (Kumiai horticultural soil) was placed, and one individual radish (Akamaru Hatsuka) was sown per one pot.
The radish was managed in a greenhouse set at room temperature of 25° C. Chemical treatment was started 2 weeks after seeding. More specifically, on the 15th, 17th, and 20th days after seeding, 50 mL of the plant growth regulator was added.
On the 27th day after seeding, the aboveground part weight and underground part weight were evaluated.

| Structure (SMILES) | Aboveground part weight, ratio to untreated control | Underground part weight, ratio to untreated control |
| --- | --- | --- |
| C[N+](C)(C)[C@@H](Cc1c[nH]c(=S)[nH]1)C(=O)[O-] [Comparative Example 46, L-(+)-ergothioneine] | 1.1 | 1.1 |
| N[C@@H](CCC(=O)O)C(=O)O [Comparative Example 47, L-glutamic acid] | 1.1 | 1.1 |

Each compound was assayed on tomato (Regina) (assay: Evaluation Example 14: Comparison of Number of Fruits and Total Fruit Weight of Tomato). Settings: 50 mL on 32nd, 34th, 36th days, fruits ≥20 mm collected 75th day after seeding, EGT 0.1 mM and/or Arg 0.1 mM.
Assay type: in vivo
Experimental: The plant growth regulators of Example 35 and Comparative Examples 48 and 49 were prepared so as to attain the concentrations indicated in Table 14 below. EGT and Arg were commercially available products, and pure water was used as a solvent.
In a plastic pot having a diameter of 135 mm and a height of 110 mm, 1 kg of granular soil (Kumiai horticultural soil) was placed, and one individual tomato (Regina) was sown per one pot.
The tomato was managed in a greenhouse set at room temperature of 25° C. Chemical treatment was started 5 weeks after seeding. More specifically, on the 32nd, 34th, and 36th days after seeding, 50 mL of the plant growth regulator was added.
On the 75th day after seeding, fruits having a diameter of 20 mm or greater were collected, and the number and total weight of the collected fruits were evaluated.

| Structure (SMILES) | Number of fruits, ratio to untreated control | Total fruit weight, ratio to untreated control |
| --- | --- | --- |
| C[N+](C)(C)[C@@H](Cc1c[nH]c(=S)[nH]1)C(=O)[O-] [Comparative Example 48, L-(+)-ergothioneine] | 1.2 | 1.2 |
| N=C(N)NCCC[C@H](N)C(=O)O [Comparative Example 49, L-arginine] | 1.0 | 0.9 |

What follows are compounds tested on wheat (assay: Evaluation Example 10: Comparison of Elongated Plant Height of Wheat). Settings: petri dish, 5 mL, 24° C, 7th day after seeding, EGT 0.5 mM and/or component (A) 0.5 mM.
Assay type: in vivo
Experimental: The plant growth regulators of Examples 23 to 26 and Comparative Examples 32 to 36 were prepared so as to attain the concentrations indicated in Table 10 below. EGT, GABA, ornithine, carnitine and maleic acid were commercially available products, and pure water was used as a solvent.
as §3, §4

| Structure (SMILES) | Elongated plant height, ratio to untreated control |
| --- | --- |
| C[N+](C)(C)[C@@H](Cc1c[nH]c(=S)[nH]1)C(=O)[O-] [Comparative Example 32, L-(+)-ergothioneine] | 1.1 |
| NCCCC(=O)O [compound 33, γ-aminobutyric acid] | 1.0 |
| NCCC[C@H](N)C(=O)O [compound 34, ornithine] | 0.9 |
| C[N+](C)(C)CC(O)CC(=O)[O-] (stereo not shown) [compound 35, carnitine] | 0.9 |
| O=C(O)/C=C\C(=O)O [compound 36, maleic acid] | 0.9 |

Each compound was assayed on wheat (assay: Evaluation Example 11: Comparison of Elongated Plant Height of Wheat). Settings: petri dish, 5 mL, 24° C, 7th day after seeding, EGT 0.5 mM and/or component (A) 0.1 mM (vitamin D2 0.01 mM).
Assay type: in vivo
Experimental: The plant growth regulators of Examples 27 to 31 and Comparative Examples 37 to 42 were prepared so as to attain the concentrations indicated in Table 11 below. EGT, Met, His, Cys, 5-ALA and vitamin D2 were commercially available products, and pure water was used as a solvent.
as §3, §4

| Structure (SMILES) | Elongated plant height, ratio to untreated control |
| --- | --- |
| C[N+](C)(C)[C@@H](Cc1c[nH]c(=S)[nH]1)C(=O)[O-] [Comparative Example 37, L-(+)-ergothioneine] | 1.1 |
| CSCC[C@H](N)C(=O)O [compound 38, L-methionine] | 0.8 |
| N[C@@H](Cc1c[nH]cn1)C(=O)O [compound 39, L-histidine] | 1.0 |
| N[C@@H](CS)C(=O)O [compound 40, L-cysteine] | 1.0 |
| NCC(=O)CCC(=O)O [compound 41, 5-aminolevulinic acid] | 0.9 |
| C=C1CC[C@H](O)C/C1=C/C=C1\CCC[C@]2(C)[C@@H]([C@H](C)/C=C/[C@H](C)C(C)C)CC[C@@H]12 [compound 42, vitamin D2] | 0.9 |

What follows are compounds tested on Arabidopsis thaliana (Col-0) (assay: Evaluation Example 2: Comparison of Seed Yield of Arabidopsis thaliana). Settings: 50 mL added on 8th, 10th, 12th, 14th days after seeding; harvest 89th day; EGT 1 mM and/or component (A) 0.1 mM.
Assay type: in vivo
Experimental: The plant growth regulators of Examples 3 to 5 and Comparative Examples 4 to 7 were prepared so as to attain the concentrations indicated in Table 2 below. EGT, citric acid, GB and GSSG were commercially available products, and pure water was used as a solvent.
One individual Arabidopsis thaliana (Col-0) was sown in a plastic pot having a diameter of 60 mm and a height of 55 mm. Plastic deep dishes each having a diameter of 160 mm and a height of 28 mm were prepared, and six pots were respectively placed therein. As soil, 45 mL of vermiculite, 22.5 mL of granular soil (Kumiai horticultural soil), and 22.5 mL of vermiculite were placed in the pot in this order.
In a growth chamber set at room temperature of 22° C., the light period was 16 hours and the dark period was 8 hours. The light conditions were set such that the light intensity was 5000 lx in the central part under irradiation with the fluorescent lamp. Water supply was conducted from the bottom, and the water level was set at about 5 mm. Chemical treatment was started […]. More specifically, on the 8th, 10th, 12th, and 14th days after seeding, 50 mL of the plant growth regulator was added instead of water supply.
On the 89th day after seeding, seeds were harvested, and the seed yield was evaluated.

| Structure (SMILES) | Seed yield, ratio to untreated control |
| --- | --- |
| C[N+](C)(C)[C@@H](Cc1c[nH]c(=S)[nH]1)C(=O)[O-] [Comparative Example 4, L-(+)-ergothioneine] | 1.2 |
| O=C(O)CC(O)(CC(=O)O)C(=O)O [Comparative Example 5, citric acid] | 0.8 |
| C[N+](C)(C)CC(=O)[O-] [compound 6, glycine betaine] | 1.0 |

What follows are compounds tested on rapeseed (assay: Evaluation Example 4: Comparison of Elongated Plant Height of Rapeseed). Settings: petri dish, 5 mL, 24° C, 7th day after seeding, EGT 1 mM and/or component (A) 1 mM.
Assay type: in vivo
Experimental: The plant growth regulators of Examples 7 and 8 and Comparative Examples 10 to 12 were prepared so as to attain the concentrations indicated in Table 4 below. EGT, Asn and Lys were commercially available products, and pure water was used as a solvent.
as §3, with “rapeseed” for “wheat”
as §2

| Structure (SMILES) | Elongated plant height, ratio to untreated control |
| --- | --- |
| C[N+](C)(C)[C@@H](Cc1c[nH]c(=S)[nH]1)C(=O)[O-] [Comparative Example 10, L-(+)-ergothioneine] | 1.1 |
| NC(=O)C[C@H](N)C(=O)O [compound 11, L-asparagine] | 1.1 |
| NCCCC[C@H](N)C(=O)O [compound 12, L-lysine] | 0.6 |

Source: patent publication US20260293896A1, “PLANT GROWTH REGULATOR, PLANT GROWTH ACCELERATION METHOD, OR PLANT GROWTH-REGULATING PRODUCT” (KUREHA CORPORATION, priority 2022, published 2026)
